# Measured values from US20230100193A1, “NOVEL PHARMACEUTICAL FORMULATIONS CONTAINING INDIRUBIN AND DERIVATIVES THEREOF AND METHODS OF MAKING AND USING THE SAME” (Cytodigm, Inc., priority 2017, published 2023).
# Experiment: Dissolution measurement after 30 minutes in 2% Tween 20 in PBS, HPLC of supernatant
# Assay type: physicochemical
# Details: after stirring for 30 minutes, centrifuged 14,000 rpm 15 min, HPLC 292 nm, 6-BIA 1.10 mg in 110 mL, nanoparticles approx. 1.32 mg/ml 6-BIA
# Procedure: As a control, dissolution of 6-BIA without polymer was first tested. 1.10 mg of 6-BIA was added to 110 mL of 2% Tween 20 in PBS. After stirring for 30 minutes, 1 mL of the resulting suspension was immediately collected to an Eppendorf tube. The Eppendorf tube was centrifuged at 14,000 rpm for 15 min.
# Encapsulated 6-BIA nanoparticles obtained in Example 4 were re-suspended in 2% Tween 20 in PBS to form a nanoparticle suspension containing approximately 1.32 mg/ml of 6-BIA in the nanoparticles. After stirring for 30 minutes, 1 mL of the resulting suspension was immediately collected to an Eppendorf tube. The Eppendorf tube was centrifuged at 14,000 rpm for 15 min.
smiles,measurement,value
"O=C1Nc2cc(Br)ccc2/C1=C1/Nc2ccccc2/C1=N\O [Example 6-BIA, 6-bromoindirubin-3′-oxime]",6-BIA concentration in supernatant (30-minute dissolution),3.89 µg/mL
